One assay deals with memapsin 2 (Homo sapiens, UniProt P56817). In words: Inhibition of memapsin 2 beta-secretase activity toward fluorogenic substrate FS-2. It counts as biochemical. The note with it: pH 4, 37° C., 20 minutes pre-incubation, read-out: M2 Ki. A digest of the protocol: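 Enzyme pre-incubated with compound 20 min at pH 4, 37 °C, then fluorogenic substrate FS-2 added. Inhibition derived from rate of fluorescence increase from peptide hydrolysis.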

A further assay deals with T1, memapsin 1 (Homo sapiens, UniProt Q9Y5Z0).
T1 sequence (Q9Y5Z0 63-518): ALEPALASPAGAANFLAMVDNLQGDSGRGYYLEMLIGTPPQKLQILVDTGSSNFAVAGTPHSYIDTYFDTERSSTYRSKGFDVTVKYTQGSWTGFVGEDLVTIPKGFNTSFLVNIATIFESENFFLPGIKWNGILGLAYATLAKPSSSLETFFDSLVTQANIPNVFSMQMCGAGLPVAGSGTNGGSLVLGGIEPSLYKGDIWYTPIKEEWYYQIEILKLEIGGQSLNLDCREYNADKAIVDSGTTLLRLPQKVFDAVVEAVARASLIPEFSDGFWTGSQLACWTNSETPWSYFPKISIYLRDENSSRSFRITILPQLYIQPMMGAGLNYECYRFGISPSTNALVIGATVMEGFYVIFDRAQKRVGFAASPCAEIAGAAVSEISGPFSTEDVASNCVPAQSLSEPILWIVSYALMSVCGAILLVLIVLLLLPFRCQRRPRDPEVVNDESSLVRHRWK
In words: Inhibition of memapsin 1 beta-secretase activity (substrate peptide hydrolysis, MALDI-TOF). The format is biochemical. The note with it: pH 4.1, 37 degrees C., read-out: M1 Ki.

In another assay the target is Cathepsin D (Homo sapiens, UniProt P07339). In words: Inhibition of cathepsin D activity (substrate peptide hydrolysis, MALDI-TOF). The format is biochemical. The note with it: pH 4.1, 37 degrees C., read-out: Cath D Ki.
The next assay deals with Aβ production. In words: Cellular Aβ IC50 determination (Aβ40 sandwich ELISA). It counts as cell-based. The note with it: Cricetulus griseus, Chinese hamster ovary cells over-expressing human APP695 with London and Swedish mutations, 24 h. A digest of the protocol: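 CHO cells over-expressing human APP695 (London and Swedish mutations) were treated 48 h after seeding with serially diluted compound, top final concentration near 4 μM (0.4% DMSO), for 24 h at 37 °C, 5% CO2. Aβ40 in medium was measured by sandwich ELISA; values relative to control were fit to a 4-parameter IC50 model.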

The term Ki denotes the dissociation constant of the complex between target and ligand, obtained from inhibition or displacement. For orientation: IC50 means the concentration that inhibits the measured activity by half. Higher therefore signals lower potency.

Molecules are shown by their SMILES. A value given as a limit tells only on which side of the number the result lay.

Sequence of Cathepsin D (P07339 65-412, species assumed): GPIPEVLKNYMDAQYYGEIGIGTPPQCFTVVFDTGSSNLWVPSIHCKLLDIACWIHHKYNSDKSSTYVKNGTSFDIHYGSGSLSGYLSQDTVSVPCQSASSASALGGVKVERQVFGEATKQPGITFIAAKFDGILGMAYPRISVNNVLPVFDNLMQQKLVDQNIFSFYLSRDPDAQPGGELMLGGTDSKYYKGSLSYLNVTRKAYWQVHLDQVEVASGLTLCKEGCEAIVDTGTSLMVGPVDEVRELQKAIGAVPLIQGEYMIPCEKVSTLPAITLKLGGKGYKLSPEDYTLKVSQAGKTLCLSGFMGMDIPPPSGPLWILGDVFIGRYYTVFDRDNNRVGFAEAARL
Sequence of memapsin 2 (P56817 46-501): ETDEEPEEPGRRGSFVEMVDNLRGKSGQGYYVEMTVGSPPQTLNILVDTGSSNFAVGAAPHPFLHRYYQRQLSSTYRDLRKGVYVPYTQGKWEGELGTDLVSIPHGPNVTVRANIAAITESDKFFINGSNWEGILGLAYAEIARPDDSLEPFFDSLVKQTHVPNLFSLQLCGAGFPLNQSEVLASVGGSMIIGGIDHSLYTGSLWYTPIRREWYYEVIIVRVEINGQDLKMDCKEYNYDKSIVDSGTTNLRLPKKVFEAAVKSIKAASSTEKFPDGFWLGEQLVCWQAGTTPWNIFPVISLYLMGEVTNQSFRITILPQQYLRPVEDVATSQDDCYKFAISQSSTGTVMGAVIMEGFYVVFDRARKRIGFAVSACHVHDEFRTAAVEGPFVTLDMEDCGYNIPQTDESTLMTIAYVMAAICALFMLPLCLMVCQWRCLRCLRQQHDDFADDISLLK

In the case of `CC(C)CNC(=O)C(NC(=O)C(C)CC(O)C(CC(C)C)NC(=O)c1cccc(C(=O)N(C)C(C)c2ccccc2)c1)C(C)C` (centres unmarked) [N1-(5-hydroxy-8-(1-(isobutylamino)-3-methyl-1-oxobutan-2-ylamino)-2,7-dimethyl-8-oxooctan-4-yl)-N3-methyl-N3-(1-phenylethyl)isophthalamide], the Ki at memapsin 2, at memapsin 1 and at Cathepsin D was under 0.405 µM throughout. This molecule showed an IC50 with Aβ production of over 20 µM.
As for `Cc1ccc(CNC(=O)c2cc(C(=O)NC(CC(C)C)C(O)CC(C)C(=O)NC(C(=O)NCC(C)C)C(C)C)cc(N(C)S(C)(=O)=O)c2)o1` (centres unmarked) [N1-(5-hydroxy-8-(1-(isobutylamino)-3-methyl-1-oxobutan-2-ylamino)-2,7-dimethyl-8-oxooctan-4-yl)-N3-((5-methylfuran-2-yl)methyl)-5-(N-methylmethylsulfonamido)isophthalamide], the values for the Ki on memapsin 2, at memapsin 1 and on Cathepsin D were under 0.405 µM, 0.405 to 2 µM and 0.405 to 2 µM, respectively. The same molecule came in with an IC50 with Aβ production of under 5 µM.
Take `CCc1csc(CN(C)C(=O)c2cccc(C(=O)NC(CC(C)C)C(O)CC(C)C(=O)NC(C(=O)NCC(C)C)C(C)C)c2)n1` (centres unmarked) [N1-((4-ethylthiazol-2-yl)methyl)-N3-(5-hydroxy-8-(1-(isobutylamino)-3-methyl-1-oxobutan-2-ylamino)-2,7-dimethyl-8-oxooctan-4-yl)-N1-methylisophthalamide]: the results for the Ki at memapsin 2, on memapsin 1 and on Cathepsin D were under 0.405 µM, under 0.405 µM and over 5 µM, respectively. In addition, the IC50 with Aβ production is over 20 µM.
For the molecule `CC(C)CNC(=O)C(NC(=O)C(C)CC(O)C(CC(C)C)NC(=O)c1cc(C(=O)NC(C)c2ccccc2)cc(S(=O)(=O)N(C)C)c1)C(C)C` (centres unmarked) [5-(N,N-dimethylsulfamoyl)-N1-(5-hydroxy-8-(1-(isobutylamino)-3-methyl-1-oxobutan-2-ylamino)-2,7-dimethyl-8-oxooctan-4-yl)-N3-(1-phenylethyl)isophthalamide], the inhibition constant (Ki) on memapsin 2 was 0.405 to 2 µM; on memapsin 1, under 0.405 µM; on Cathepsin D, under 0.405 µM. The same molecule gave an IC50 in the assay with Aβ production of under 5 µM.
Take `COc1cccc(CNC(=O)C(C)CC(O)C(CC(C)C)NC(=O)c2cc(C(=O)NC(C)c3ccccc3)cc(N(C)S(C)(=O)=O)c2)c1` (centres unmarked) [N1-(5-hydroxy-8-(3-methoxybenzylamino)-2,7-dimethyl-8-oxooctan-4-yl)-5-(N-methylmethylsulfonamido)-N3-(1-phenylethyl)isophthalamide]: the Ki on memapsin 2, at memapsin 1 and at Cathepsin D was over 5 µM throughout. In addition, the IC50 in the assay on Aβ production was 10 to 20 µM.
In the case of `CC(C)CC(NC(=O)c1cc(C(=O)NC(C)c2ccccc2)cc(N(C)S(C)(=O)=O)c1)C(O)CC(C)C(=O)NCc1ccccc1` (centres unmarked) [N1-(8-(benzylamino)-5-hydroxy-2,7-dimethyl-8-oxooctan-4-yl)-5-(N-methylmethylsulfonamido)-N3-(1-phenylethyl)isophthalamide], the Ki on memapsin 2 was 2 to 5 µM; at memapsin 1, 2 to 5 µM; at Cathepsin D, over 5 µM. Further, the half-maximal inhibitory concentration (IC50) in the assay with Aβ production is over 20 µM.
As to `Cc1csc(CN(C)C(=O)c2cccc(C(=O)NC(CC(C)C)C(O)CC(C)C(=O)NC(C(=O)NCC(C)C)C(C)C)c2)n1` (centres unmarked) [N1-(5-hydroxy-8-(1-(isobutylamino)-3-methyl-1-oxobutan-2-ylamino)-2,7-dimethyl-8-oxooctan-4-yl)-N3-methyl-N3-((4-methylthiazol-2-yl)methyl)isophthalamide], the Ki is under 0.405 µM on memapsin 2, 0.405 to 2 µM on memapsin 1 and under 0.405 µM on Cathepsin D. Moreover, in the assay on Aβ production, the IC50 was under 5 µM.
Take `CC(C)CNC(=O)C(NC(=O)C(C)CC(O)C(CC(C)C)NC(=O)c1cccc(C(=O)N(C)Cc2cnccn2)c1)C(C)C` (centres unmarked) [N1-(5-hydroxy-8-(1-(isobutylamino)-3-methyl-1-oxobutan-2-ylamino)-2,7-dimethyl-8-oxooctan-4-yl)-N3-methyl-N3-(pyrazin-2-ylmethyl)isophthalamide]: the values for the Ki at memapsin 2, at memapsin 1 and on Cathepsin D were 0.405 to 2 µM, 0.405 to 2 µM and under 0.405 µM, respectively. The same molecule had an IC50 with Aβ production of over 20 µM.
With `Cc1cc(C(=O)NC(CC(C)C)C(O)CC(C)C(=O)NC(C(=O)NCC(C)C)C(C)C)cc(C(=O)N(C)Cc2nc(C)cs2)c1` (centres unmarked) [N1-(5-hydroxy-8-(1-(isobutylamino)-3-methyl-1-oxobutan-2-ylamino)-2,7-dimethyl-8-oxooctan-4-yl)-N3,5-dimethyl-N3-((4-methylthiazol-2-yl)methyl)isophthalamide], the Ki at memapsin 2, on memapsin 1 and on Cathepsin D was under 0.405 µM throughout. Besides, the IC50 in the assay with Aβ production is under 5 µM.
Consider `CCCN(CCC)C(=O)c1cccc(C(=O)NC(Cc2ccc(OC)c(Cl)c2)C(O)CC(C)C(=O)NC(C(=O)NCC(C)C)C(C)C)c1` (centres unmarked) [N1-(1-(3-chloro-4-methoxyphenyl)-3-hydroxy-6-(1-(isobutylamino)-3-methyl-1-oxobutan-2-ylamino)-5-methyl-6-oxohexan-2-yl)-N3,N3-dipropylisophthalamide], for which the Ki is 0.405 to 2 µM on memapsin 2, under 0.405 µM at memapsin 1 and under 0.405 µM at Cathepsin D. The same molecule had a half-maximal inhibitory concentration (IC50) in the assay with Aβ production of 10 to 20 µM.
Take `CC(C)CNC(=O)C(NC(=O)C(C)CC(O)C(CC(C)C)NC(=O)c1cccc(C(=O)N(C)Cc2cccnc2)c1)C(C)C` (centres unmarked) [N1-(5-hydroxy-8-(1-(isobutylamino)-3-methyl-1-oxobutan-2-ylamino)-2,7-dimethyl-8-oxooctan-4-yl)-N3-methyl-N3-(pyridin-3-ylmethyl)isophthalamide]: the Ki at memapsin 2, on memapsin 1 and at Cathepsin D was under 0.405 µM throughout. The same molecule yielded an IC50 in the assay with Aβ production of over 20 µM.
For the molecule `Cc1csc(CNC(=O)c2cccc(C(=O)N[C@@H](CC(C)C)[C@@H](O)C[C@@H](C)C(=O)N[C@H](C(=O)NCC(C)C)C(C)C)c2)n1` [N1-(5-hydroxy-8-(1-(isobutylamino)-3-methyl-1-oxobutan-2-ylamino)-2,7-dimethyl-8-oxooctan-4-yl)-N3-((4-methylthiazol-2-yl)methyl)isophthalamide], the inhibitory constant (Ki) at memapsin 2 was under 0.405 µM; on memapsin 1 it was 2 to 5 µM; at Cathepsin D it was 0.405 to 2 µM. In the assay with Aβ production, this molecule displayed a 50% inhibitory concentration (IC50) of over 20 µM.
On the same counts, the results for `CC(C)CNC(=O)C(NC(=O)C(C)CC(O)C(CC(C)C)NC(=O)c1cc(C(=O)NCc2cnccn2)cc(N(C)S(C)(=O)=O)c1)C(C)C` (centres unmarked) [N1-(5-hydroxy-8-(1-(isobutylamino)-3-methyl-1-oxobutan-2-ylamino)-2,7-dimethyl-8-oxooctan-4-yl)-5-(N-methylmethylsulfonamido)-N3-(pyrazin-2-ylmethyl)isophthalamide] are under 0.405 µM, 0.405 to 2 µM, 0.405 to 2 µM and over 20 µM.
Taken in the same sequence, the figures for `CC(C)CNC(=O)C(NC(=O)C(C)CC(O)C(CC(C)C)NC(=O)c1cccc(C(=O)N(C)Cc2ccccn2)c1)C(C)C` (centres unmarked) [N1-(5-hydroxy-8-(1-(isobutylamino)-3-methyl-1-oxobutan-2-ylamino)-2,7-dimethyl-8-oxooctan-4-yl)-N3-methyl-N3-(pyridin-2-ylmethyl)isophthalamide] were 0.405 to 2 µM, under 0.405 µM, under 0.405 µM and over 20 µM.
On the same counts, the results for `CC(C)CC(NC(=O)c1cc(C(=O)NC2c3ccccc3CC2O)cc(N(C)S(C)(=O)=O)c1)C(O)CC(C)C(=O)NC(C(=O)NC(C)C)C(C)C` (centres unmarked) [N1-(2-hydroxy-2,3-dihydro-1H-inden-1-yl)-N3-(5-hydroxy-8-(1-(isopropylamino)-3-methyl-1-oxobutan-2-ylamino)-2,7-dimethyl-8-oxooctan-4-yl)-5-(N-methylmethylsulfonamido)isophthalamide] are 0.405 to 2 µM, 0.405 to 2 µM, 0.405 to 2 µM and over 20 µM.
For the molecule `CCC(NC(=O)C(C)CC(O)C(CC(C)C)NC(=O)c1cccc(C(=O)N(C)Cc2nc(C)cs2)c1)C(=O)NC(C)C` (centres unmarked) [N1-(5-hydroxy-8-(1-(isopropylamino)-1-oxobutan-2-ylamino)-2,7-dimethyl-8-oxooctan-4-yl)-N3-methyl-N3-((4-methylthiazol-2-yl)methyl)isophthalamide], the values for the Ki on memapsin 2, on memapsin 1 and on Cathepsin D were under 0.405 µM, over 5 µM and 0.405 to 2 µM, respectively. In the assay on Aβ production, this molecule returned an IC50 of under 5 µM.
With `CCCN(Cc1nc(C)cs1)C(=O)c1cccc(C(=O)NC(CC(C)C)C(O)CC(C)C(=O)NC(C(=O)NCC(C)C)C(C)C)c1` (centres unmarked) [N1-(5-hydroxy-8-(1-(isobutylamino)-3-methyl-1-oxobutan-2-ylamino)-2,7-dimethyl-8-oxooctan-4-yl)-N3-((4-methylthiazol-2-yl)methyl)-N3-propylisophthalamide], the inhibitory constant (Ki) was under 0.405 µM on memapsin 2, 0.405 to 2 µM at memapsin 1 and under 0.405 µM on Cathepsin D. The same molecule showed a half-inhibitory concentration (IC50) with Aβ production of 10 to 20 µM.

The values above are taken from patent publication US20080207527A1, “Bicyclic Compounds Which Inhibit Beta-Secretase Activity and Methods of Use Thereof” (CoMentis, Inc., priority 2004, published 2008).
